Assay results taken from the NIST ThermoML archive (doi:10.1021/acs.jced.5b00922).

Assay: mn = molality of the nth substance listed, in mol/kg
Conditions: 100 kPa, Liquid; for viscosity: Capillary tube (Ostwald / Ubbelohde) method; for mass density: Pycnometric method

NCCCNCCCN [bis(3-aminopropyl)amine] + O
Conditions	mass density [kg/m3]	viscosity [mPa·s]
298 K, m1 = 0.102	997.56	0.95
298 K, m1 = 0.313	997.47	1.07
298 K, m1 = 0.537	997.32	1.23
298 K, m1 = 0.773	997.12	1.41
298 K, m1 = 1.024	996.9	1.57
298 K, m1 = 1.291	996.71	1.74
303 K, m1 = 0.102	996.21	0.84
303 K, m1 = 0.313	996.12	0.95
303 K, m1 = 0.537	995.98	1.09
303 K, m1 = 0.773	995.83	1.24
303 K, m1 = 1.024	995.67	1.39
303 K, m1 = 1.291	995.53	1.55
308 K, m1 = 0.102	994.48	0.76
308 K, m1 = 0.313	994.37	0.85
308 K, m1 = 0.537	994.17	0.98
308 K, m1 = 0.773	994	1.1
308 K, m1 = 1.024	993.82	1.24
308 K, m1 = 1.291	993.64	1.38
313 K, m1 = 0.102	992.55	0.69
313 K, m1 = 0.313	992.43	0.77
313 K, m1 = 0.537	992.27	0.88
313 K, m1 = 0.773	992.1	0.99
313 K, m1 = 1.024	991.92	1.11
313 K, m1 = 1.291	991.73	1.23
318 K, m1 = 0.102	990.18	0.61
318 K, m1 = 0.313	989.94	0.69
318 K, m1 = 0.537	989.71	0.8
318 K, m1 = 0.773	989.48	0.9
318 K, m1 = 1.024	989.3	1
318 K, m1 = 1.291	989.09	1.11
323 K, m1 = 0.102	987.58	0.55
323 K, m1 = 0.313	987.36	0.63
323 K, m1 = 0.537	987.13	0.73
323 K, m1 = 0.773	986.93	0.81
323 K, m1 = 1.024	986.74	0.9
323 K, m1 = 1.291	986.55	0.98
